Reference: patent US7115632B1, “Sulfonyl aryl or heteroaryl hydroxamic acid compounds” (priority 1999, dated 2006)
pIC50: −log10 of the molar value. Counter-ions that a name gives are not always drawn.

Columns and labels:
Assay in all cases: In vitro metalloprotease inhibition, fluorogenic MCA peptide substrate
Format in all cases: biochemical
Details in all cases: Inhibition Table B
MMP-2 = target: T1, MMP-2 (Homo sapiens, UniProt P08253)
T1 construct: made in house; provided by Dr. Gregory Goldberg, Washington University
T1 sequence (P08253 110-660): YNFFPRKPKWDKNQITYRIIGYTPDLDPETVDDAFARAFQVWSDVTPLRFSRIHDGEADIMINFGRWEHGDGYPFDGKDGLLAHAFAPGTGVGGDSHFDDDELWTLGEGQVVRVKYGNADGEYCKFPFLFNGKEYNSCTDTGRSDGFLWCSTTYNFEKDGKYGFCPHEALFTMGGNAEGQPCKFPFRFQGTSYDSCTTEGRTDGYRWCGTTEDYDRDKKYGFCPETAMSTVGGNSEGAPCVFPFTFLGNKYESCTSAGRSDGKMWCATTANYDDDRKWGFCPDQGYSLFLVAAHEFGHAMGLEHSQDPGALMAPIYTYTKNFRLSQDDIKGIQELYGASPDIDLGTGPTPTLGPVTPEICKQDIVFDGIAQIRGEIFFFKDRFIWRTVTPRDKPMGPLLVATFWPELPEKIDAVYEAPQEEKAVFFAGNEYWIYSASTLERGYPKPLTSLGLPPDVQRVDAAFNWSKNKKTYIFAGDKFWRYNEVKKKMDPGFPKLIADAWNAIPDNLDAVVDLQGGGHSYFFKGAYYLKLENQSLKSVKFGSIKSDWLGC
Excerpt: (§5) The expressed enzyme was purified first over a heparin agarose column and then over a chelating zinc chloride column. The proenzyme was activated by APMA for use in the assay.

MMP-3 = MMP-3 (Homo sapiens, UniProt P08254)
Chain of MMP-3 (P08254 100-477, species assumed): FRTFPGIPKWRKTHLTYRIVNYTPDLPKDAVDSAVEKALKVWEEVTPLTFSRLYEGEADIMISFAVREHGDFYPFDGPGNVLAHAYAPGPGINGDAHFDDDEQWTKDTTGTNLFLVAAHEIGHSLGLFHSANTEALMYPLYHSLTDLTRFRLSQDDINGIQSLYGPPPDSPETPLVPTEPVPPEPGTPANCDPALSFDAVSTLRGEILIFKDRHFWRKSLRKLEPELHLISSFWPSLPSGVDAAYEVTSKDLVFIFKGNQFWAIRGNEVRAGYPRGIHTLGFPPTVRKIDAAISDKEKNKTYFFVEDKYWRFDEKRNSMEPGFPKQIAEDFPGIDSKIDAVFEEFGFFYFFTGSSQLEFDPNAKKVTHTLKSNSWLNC

MMP-13 = target: T2, MMP-13 (Homo sapiens, UniProt P45452)
T2 construct: made in house; host or cells: insect cells, baculovirus expression
Excerpt: as §5

MT1-MMP = MT1-MMP (Homo sapiens, UniProt P50281)
Protocol: (§1) Briefly, 4-aminophenylmercuric acetate (APMA) or trypsin-activated MMPs were incubated with various concentrations of the inhibitor compound at room temperature for 5 minutes.
(§2) MCA-ProLeuGlyLeuDpaAlaArgNH2, wherein MCA is methoxycoumarin and Dpa is 3-(2,4-dinitrophenyl)-L-2,3-diaminopropionyl alanine.
(§3) The buffer used for assays contained 100 mM Tris-HCl, 100 mM NaCl, 10 mM CaCl2 and 0.05 percent polyethyleneglycol (23) lauryl ether at a pH value of 7.5.
(§4) The ID50 values were calculated from those values.

MMP-8 = MMP-8 (Homo sapiens, UniProt P22894)
Chain of MMP-8 (P22894 101-467, species assumed): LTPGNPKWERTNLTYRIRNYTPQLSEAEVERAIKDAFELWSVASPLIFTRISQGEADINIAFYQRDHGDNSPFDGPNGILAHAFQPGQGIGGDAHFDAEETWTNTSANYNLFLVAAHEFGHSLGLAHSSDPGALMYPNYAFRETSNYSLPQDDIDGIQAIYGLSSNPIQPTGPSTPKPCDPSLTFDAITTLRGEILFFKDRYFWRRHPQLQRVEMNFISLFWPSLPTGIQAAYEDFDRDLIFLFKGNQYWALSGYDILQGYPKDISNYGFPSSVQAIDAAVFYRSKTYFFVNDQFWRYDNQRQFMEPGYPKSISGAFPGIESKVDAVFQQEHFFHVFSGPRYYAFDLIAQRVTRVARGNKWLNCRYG
Protocol: as §1, §2, §3, §4

MMP-9 = target: T3, MMP-9 (Homo sapiens, UniProt P14780)
T3 construct: made in house; host or cells: transfected HT-1080 cells (provided by Dr. Harold Welgus)
T3 sequence (P14780 107-707 limits assumed): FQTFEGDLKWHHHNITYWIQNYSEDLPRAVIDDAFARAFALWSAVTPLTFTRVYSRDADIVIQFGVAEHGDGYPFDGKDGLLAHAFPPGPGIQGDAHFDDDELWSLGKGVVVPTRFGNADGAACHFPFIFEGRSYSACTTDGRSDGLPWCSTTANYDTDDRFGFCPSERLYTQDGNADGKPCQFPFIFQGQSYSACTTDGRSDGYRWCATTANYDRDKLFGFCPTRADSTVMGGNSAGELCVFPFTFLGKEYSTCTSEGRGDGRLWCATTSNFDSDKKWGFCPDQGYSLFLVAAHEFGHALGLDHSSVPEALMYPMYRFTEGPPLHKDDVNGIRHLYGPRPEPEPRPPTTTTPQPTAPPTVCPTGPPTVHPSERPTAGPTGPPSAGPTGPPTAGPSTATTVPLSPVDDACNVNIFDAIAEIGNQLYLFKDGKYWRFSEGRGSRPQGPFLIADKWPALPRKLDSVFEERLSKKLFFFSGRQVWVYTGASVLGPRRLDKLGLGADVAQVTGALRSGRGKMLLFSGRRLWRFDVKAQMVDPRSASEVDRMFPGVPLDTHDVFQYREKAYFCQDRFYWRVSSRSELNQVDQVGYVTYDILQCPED
Protocol: as §1
MMP-1 expressed in transfected HT-1080 cells was provided by Dr. Harold Welgus of Washington University, St. Louis, Mo. The enzyme was also activated using APMA and was then purified over a hydroxamic acid column. Dr. Welgus also provided transfected HT-1080 cells that expressed MMP-9. Transfected cells that expressed MMP-2 were provided by Dr. Gregory Goldberg, also of Washington University. Further specifics for preparation and use of these enzymes can be found in the scientific literature describing these enzymes. See, for example, Enzyme Nomenclature, Academic Press, San Diego, Calif. (1992) and the citations therein, and Frije et al., J. Biol. Chem., 26(24): 16766–16773 (1994).
as §2, §3, §4

MMP-1 = target: T4, MMP-1 (Homo sapiens, UniProt P03956)
T4 construct: made in house; host or cells: transfected HT-1080 cells (provided by Dr. Harold Welgus, Washington University)
T4 sequence (P03956 100-469): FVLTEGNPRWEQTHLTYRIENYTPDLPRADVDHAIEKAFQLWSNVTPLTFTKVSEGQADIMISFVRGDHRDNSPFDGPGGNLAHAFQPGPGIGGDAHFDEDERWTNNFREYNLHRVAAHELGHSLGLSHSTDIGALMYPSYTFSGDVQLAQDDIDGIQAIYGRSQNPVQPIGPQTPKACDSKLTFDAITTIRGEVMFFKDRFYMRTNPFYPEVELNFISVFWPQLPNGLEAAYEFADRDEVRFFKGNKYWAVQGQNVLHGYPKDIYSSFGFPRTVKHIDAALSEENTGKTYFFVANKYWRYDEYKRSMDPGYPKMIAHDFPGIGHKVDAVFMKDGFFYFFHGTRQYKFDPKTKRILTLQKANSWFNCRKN
Excerpt: as §5

COc1ccccc1-c1ccc(OC2CCN(S(=O)(=O)c3ccc(OC)c(OC)c3C(=O)NO)CC2)cc1 [Example 22]
pIC50 (MMP-2): 7.81 | pIC50 (MMP-3): 6.77 | pIC50 (MMP-13): 8.26 | pIC50 (MT1-MMP): 5.60 | pIC50 (MMP-8): 6.10 | pIC50 (MMP-9): 6.52

COc1ccc(S(=O)(=O)N2CCC(Sc3ccccc3)CC2)c(C(=O)NO)c1OC [Example 24, N-Hydroxy-2,3-dimethoxy-6-[[4-(phenylthio)-1-piperidinyl]sulfonyl]benzamide]
pIC50 (MMP-2): 9.05 | pIC50 (MMP-3): 6.40 | pIC50 (MMP-13): 8.52 | pIC50 (MT1-MMP): 7.60 | pIC50 (MMP-8): 7.97 | pIC50 (MMP-9): 8.00 | pIC50 (MMP-1): < 5.00

COc1ccc(S(=O)(=O)N2CCN(c3ccc(C(F)(F)F)cc3)CC2)c(C(=O)NO)c1OC [Example 26, N-Hydroxy-2,3-dimethoxy-6-[[4-[4-(trifluoromethyl)phenyl]-1-piperazinyl]sulfonyl]benzamide]
pIC50 (MMP-2): 8.19 | pIC50 (MMP-3): 5.76 | pIC50 (MMP-13): 7.40 | pIC50 (MT1-MMP): 5.72 | pIC50 (MMP-8): 7.43 | pIC50 (MMP-9): 6.01 | pIC50 (MMP-1): < 5.00

COc1ccc(S(=O)(=O)N2CCC(Oc3ccc(-c4cccc(C(F)(F)F)c4)cc3)CC2)c(C(=O)NO)c1OC [Example 27, N-Hydroxyl-2,3-dimethoxy-6-[[4-[[3′-(trifluoromethyl)[1,1′-biphenyl]-4-yl]oxy]-1-piperidinyl]sulfonyl]benzamide]
pIC50 (MMP-2): 8.48 | pIC50 (MMP-3): 6.52 | pIC50 (MMP-13): 8.52 | pIC50 (MT1-MMP): 6.16 | pIC50 (MMP-8): 6.68 | pIC50 (MMP-9): 6.28 | pIC50 (MMP-1): < 5.00

COc1ccc(S(=O)(=O)N2CCC(Oc3ccc(OC(F)(F)F)cc3)CC2)c(C(=O)NO)c1OC [Example 33]
pIC50 (MMP-2): 9.05 | pIC50 (MMP-3): 7.00 | pIC50 (MMP-13): 8.30 | pIC50 (MT1-MMP): 6.44 | pIC50 (MMP-9): 8.82 | pIC50 (MMP-1): < 5.00

O=C(NO)c1c(S(=O)(=O)N2CCC(Oc3ccc(C(F)(F)F)cc3)CC2)ccc2c1OCO2 [Example 36]
pIC50 (MMP-2): 8.52 | pIC50 (MMP-3): 6.22 | pIC50 (MMP-13): 7.74 | pIC50 (MT1-MMP): 6.52 | pIC50 (MMP-8): 7.91 | pIC50 (MMP-9): 8.10 | pIC50 (MMP-1): < 5.00

COc1ccc(S(=O)(=O)N2CCC(Oc3ccc(-c4ccccc4C(F)(F)F)cc3)CC2)c(C(=O)NO)c1OC [Example 38, N-Hydroxy-2,3-dimethoxy-6-[[4-[[2′-(trifluoromethyl)[1,1′-biphenyl]-4-yl]oxy]-1-piperidinyl]sulfonyl]benzamide]
pIC50 (MMP-2): 7.70 | pIC50 (MMP-13): 7.09 | pIC50 (MMP-8): 5.77

COc1ccc(C(C)C)cc1-c1ccc(OC2CCN(S(=O)(=O)c3ccc(OC)c(OC)c3C(=O)NO)CC2)cc1 [Example 39]
pIC50 (MMP-2): 6.92 | pIC50 (MMP-13): 7.00 | pIC50 (MMP-8): 6.40

CCOc1ccccc1-c1ccc(OC2CCN(S(=O)(=O)c3ccc(OC)c(OC)c3C(=O)NO)CC2)cc1 [Example 40]
pIC50 (MMP-2): 7.10 | pIC50 (MMP-13): 7.30 | pIC50 (MMP-8): 5.36

COc1ccc(N2CCN(S(=O)(=O)c3ccc(OC)c(OC)c3C(=O)NO)CC2)cc1 [Example 41, N-Hydroxy-2,3-dimethoxy-6-[[4-(4-methoxyphenyl)-1-piperazinyl]sulfonyl]benzamide, monohydrochloride]
pIC50 (MMP-2): 8.22 | pIC50 (MMP-3): 5.10 | pIC50 (MMP-13): 7.00 | pIC50 (MT1-MMP): 5.40 | pIC50 (MMP-8): 6.92 | pIC50 (MMP-9): 6.33 | pIC50 (MMP-1): < 5.00

COc1ccc(OC2CCN(S(=O)(=O)c3ccc(OC)c(OC)c3C(=O)NO)CC2)cc1 [Example 45]
pIC50 (MMP-2): 8.74 | pIC50 (MMP-3): 6.05 | pIC50 (MMP-13): 7.86 | pIC50 (MT1-MMP): 6.52 | pIC50 (MMP-8): 7.94 | pIC50 (MMP-9): 8.52 | pIC50 (MMP-1): < 5.00

COc1ccc(S(=O)(=O)N2CCN(Cc3ccccc3)CC2)c(C(=O)NO)c1OC [Example 52, N-Hydroxy-2,3-dimethoxy-6-[[4-(phenylmethyl)-1-piperazinyl]sulfonyl]benzamide, monohydrochloride]
pIC50 (MMP-2): 5.82 | pIC50 (MMP-13): 5.40 | pIC50 (MMP-8): < 5.00
